Measurements taken from patent US20120122860A1, “SOLID FORMS OF SULFONAMIDES AND AMINO ACIDS” (Plexxikon, Inc., priority 2009, published 2012).

Columns and labels:
[1] = target: Kdr (Homo sapiens, UniProt P35968); test: Kinase activity assay, Kdr
[2] = target: Src (Homo sapiens, UniProt P12931); test: Kinase activity assay, Src
[3] = target: T1, A-Raf (Homo sapiens, UniProt P10398); test: Kinase activity assay, A-Raf
T1 sequence (P10398 1-606): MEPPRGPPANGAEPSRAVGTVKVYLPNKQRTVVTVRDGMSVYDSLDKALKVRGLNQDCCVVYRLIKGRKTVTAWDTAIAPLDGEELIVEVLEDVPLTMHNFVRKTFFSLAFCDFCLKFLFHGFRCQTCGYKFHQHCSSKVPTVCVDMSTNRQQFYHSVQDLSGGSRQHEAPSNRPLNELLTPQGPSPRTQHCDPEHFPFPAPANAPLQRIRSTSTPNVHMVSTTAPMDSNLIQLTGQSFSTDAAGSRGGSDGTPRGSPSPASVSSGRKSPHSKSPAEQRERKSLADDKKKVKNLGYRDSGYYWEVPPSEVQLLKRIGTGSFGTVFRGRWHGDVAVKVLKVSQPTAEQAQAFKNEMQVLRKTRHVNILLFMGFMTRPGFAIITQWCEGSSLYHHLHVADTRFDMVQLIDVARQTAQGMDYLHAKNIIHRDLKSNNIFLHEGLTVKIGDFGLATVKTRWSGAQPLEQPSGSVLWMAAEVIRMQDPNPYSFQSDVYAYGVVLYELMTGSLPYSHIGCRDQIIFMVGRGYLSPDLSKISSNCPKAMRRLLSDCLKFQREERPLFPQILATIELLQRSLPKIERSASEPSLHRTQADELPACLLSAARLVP

[4] = target: B-Raf V600E (Homo sapiens, UniProt P15056, V600E); test: Kinase activity assay, B-Raf V600E; type: biochemical; conditions: read-out: activity toward kinase B-Raf V600E, IC50
Sequence of B-Raf V600E (P15056 whole entry V600E): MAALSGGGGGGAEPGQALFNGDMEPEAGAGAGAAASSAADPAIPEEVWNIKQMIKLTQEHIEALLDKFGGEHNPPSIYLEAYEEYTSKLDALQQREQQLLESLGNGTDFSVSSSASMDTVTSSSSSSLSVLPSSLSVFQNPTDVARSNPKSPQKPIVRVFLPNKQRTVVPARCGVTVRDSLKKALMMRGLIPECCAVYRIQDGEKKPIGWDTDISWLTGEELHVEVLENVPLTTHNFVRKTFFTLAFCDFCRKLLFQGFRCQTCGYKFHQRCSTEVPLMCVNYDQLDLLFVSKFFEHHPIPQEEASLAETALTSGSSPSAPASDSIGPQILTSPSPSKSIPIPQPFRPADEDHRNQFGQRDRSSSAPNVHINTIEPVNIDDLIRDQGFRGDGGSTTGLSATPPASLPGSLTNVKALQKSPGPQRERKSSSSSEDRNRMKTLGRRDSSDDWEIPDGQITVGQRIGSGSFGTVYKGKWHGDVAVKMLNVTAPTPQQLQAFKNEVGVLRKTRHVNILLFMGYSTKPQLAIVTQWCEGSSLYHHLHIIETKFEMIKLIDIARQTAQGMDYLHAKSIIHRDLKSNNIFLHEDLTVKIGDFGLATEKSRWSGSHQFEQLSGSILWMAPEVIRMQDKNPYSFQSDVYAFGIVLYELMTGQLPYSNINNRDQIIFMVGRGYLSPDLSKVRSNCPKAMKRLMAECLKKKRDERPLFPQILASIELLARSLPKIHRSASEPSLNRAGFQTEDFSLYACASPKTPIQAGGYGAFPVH

[5] = target: MAP4K4 (Homo sapiens, UniProt O95819); test: Kinase activity assay, MAP4K4
Sequence of MAP4K4 (O95819 whole entry): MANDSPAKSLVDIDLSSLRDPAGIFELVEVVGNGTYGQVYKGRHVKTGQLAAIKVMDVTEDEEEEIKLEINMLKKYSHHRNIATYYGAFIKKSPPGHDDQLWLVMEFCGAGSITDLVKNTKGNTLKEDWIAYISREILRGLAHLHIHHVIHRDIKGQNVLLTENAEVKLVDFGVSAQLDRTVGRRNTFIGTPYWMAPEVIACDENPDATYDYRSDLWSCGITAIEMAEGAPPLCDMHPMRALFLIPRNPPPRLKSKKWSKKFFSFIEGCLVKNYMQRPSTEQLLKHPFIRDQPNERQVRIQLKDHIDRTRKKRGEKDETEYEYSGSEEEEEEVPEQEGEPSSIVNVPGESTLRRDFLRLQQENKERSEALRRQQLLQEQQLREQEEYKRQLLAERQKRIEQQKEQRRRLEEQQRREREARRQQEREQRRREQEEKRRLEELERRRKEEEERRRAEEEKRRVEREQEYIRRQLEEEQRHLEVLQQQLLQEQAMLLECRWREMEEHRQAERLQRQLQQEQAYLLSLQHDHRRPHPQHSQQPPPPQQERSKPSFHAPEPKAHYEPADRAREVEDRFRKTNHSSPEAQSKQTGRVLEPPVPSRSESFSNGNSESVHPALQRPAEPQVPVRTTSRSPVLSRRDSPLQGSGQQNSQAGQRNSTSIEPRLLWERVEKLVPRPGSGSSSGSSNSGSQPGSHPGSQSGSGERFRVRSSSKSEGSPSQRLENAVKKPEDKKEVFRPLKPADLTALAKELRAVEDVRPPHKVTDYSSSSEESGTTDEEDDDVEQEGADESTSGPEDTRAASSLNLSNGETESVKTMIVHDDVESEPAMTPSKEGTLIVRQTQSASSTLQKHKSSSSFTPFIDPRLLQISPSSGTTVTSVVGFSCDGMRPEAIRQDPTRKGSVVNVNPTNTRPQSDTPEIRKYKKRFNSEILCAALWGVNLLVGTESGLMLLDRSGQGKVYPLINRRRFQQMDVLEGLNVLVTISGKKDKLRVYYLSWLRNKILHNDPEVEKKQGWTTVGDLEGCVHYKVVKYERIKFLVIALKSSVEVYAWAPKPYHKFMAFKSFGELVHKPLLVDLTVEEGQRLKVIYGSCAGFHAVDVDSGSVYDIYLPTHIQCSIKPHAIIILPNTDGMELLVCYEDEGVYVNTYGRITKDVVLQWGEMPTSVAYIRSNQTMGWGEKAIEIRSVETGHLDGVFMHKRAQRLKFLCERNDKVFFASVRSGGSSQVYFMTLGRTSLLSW

[6] = target: C-Raf (Homo sapiens, UniProt P04049); test: Kinase activity assay, C-Raf
Sequence of C-Raf (P04049 whole entry): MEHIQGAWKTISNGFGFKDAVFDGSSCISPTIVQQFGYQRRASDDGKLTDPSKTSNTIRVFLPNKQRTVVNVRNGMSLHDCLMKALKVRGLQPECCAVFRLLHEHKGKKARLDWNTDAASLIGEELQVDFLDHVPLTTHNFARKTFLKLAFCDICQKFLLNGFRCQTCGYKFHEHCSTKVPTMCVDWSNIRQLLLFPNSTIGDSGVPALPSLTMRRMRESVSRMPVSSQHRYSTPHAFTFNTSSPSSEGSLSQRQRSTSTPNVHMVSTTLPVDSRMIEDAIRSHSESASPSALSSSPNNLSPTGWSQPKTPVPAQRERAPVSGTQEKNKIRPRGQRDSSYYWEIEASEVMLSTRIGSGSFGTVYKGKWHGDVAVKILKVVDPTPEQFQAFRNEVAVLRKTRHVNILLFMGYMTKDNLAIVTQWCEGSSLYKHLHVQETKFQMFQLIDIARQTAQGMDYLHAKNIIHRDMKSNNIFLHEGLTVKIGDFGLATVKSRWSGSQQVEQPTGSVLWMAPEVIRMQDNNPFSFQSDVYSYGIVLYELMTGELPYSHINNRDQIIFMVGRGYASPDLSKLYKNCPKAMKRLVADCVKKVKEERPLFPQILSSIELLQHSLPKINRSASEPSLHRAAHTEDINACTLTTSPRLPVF

[7] = target: B-Raf (Homo sapiens, UniProt P15056); test: Kinase activity assay, B-Raf; type: biochemical; conditions: read-out: activity toward kinase B-Raf, IC50
Sequence of B-Raf (P15056 whole entry): as the sequence (P15056 whole entry V600E) above, with E600V counted along it

[8] = target: Kit (Homo sapiens, UniProt P10721); test: Kinase activity assay, Kit
[9] = target: Fms (Homo sapiens, UniProt P07333); test: Kinase activity assay, Fms
Sequence of Fms (P07333 20-972): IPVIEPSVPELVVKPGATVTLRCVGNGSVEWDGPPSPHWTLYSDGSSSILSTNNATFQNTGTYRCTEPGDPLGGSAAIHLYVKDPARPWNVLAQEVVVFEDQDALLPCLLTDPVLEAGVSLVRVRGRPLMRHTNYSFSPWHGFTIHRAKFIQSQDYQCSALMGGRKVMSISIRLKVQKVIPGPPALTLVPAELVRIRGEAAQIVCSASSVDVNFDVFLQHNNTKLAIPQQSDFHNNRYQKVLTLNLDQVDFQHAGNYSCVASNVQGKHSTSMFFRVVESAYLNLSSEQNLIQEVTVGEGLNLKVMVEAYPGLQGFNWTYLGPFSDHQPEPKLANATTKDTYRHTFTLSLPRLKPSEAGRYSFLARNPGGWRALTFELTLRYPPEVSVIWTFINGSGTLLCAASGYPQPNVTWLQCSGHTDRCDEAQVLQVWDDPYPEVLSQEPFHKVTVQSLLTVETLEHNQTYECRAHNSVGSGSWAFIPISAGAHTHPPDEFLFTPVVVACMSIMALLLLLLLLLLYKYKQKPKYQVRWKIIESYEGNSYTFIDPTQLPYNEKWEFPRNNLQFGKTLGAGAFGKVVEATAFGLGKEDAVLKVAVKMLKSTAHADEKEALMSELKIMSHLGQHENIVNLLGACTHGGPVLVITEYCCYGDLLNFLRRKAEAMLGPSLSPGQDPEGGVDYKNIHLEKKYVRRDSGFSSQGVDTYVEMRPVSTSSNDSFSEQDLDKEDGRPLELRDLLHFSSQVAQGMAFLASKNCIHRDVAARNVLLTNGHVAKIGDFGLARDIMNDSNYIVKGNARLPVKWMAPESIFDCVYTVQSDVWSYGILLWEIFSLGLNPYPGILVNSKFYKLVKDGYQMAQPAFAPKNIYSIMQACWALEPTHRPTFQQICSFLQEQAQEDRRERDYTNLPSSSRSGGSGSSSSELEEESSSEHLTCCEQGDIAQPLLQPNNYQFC

Measured: IC50

Sequence of Src (P12931 whole entry): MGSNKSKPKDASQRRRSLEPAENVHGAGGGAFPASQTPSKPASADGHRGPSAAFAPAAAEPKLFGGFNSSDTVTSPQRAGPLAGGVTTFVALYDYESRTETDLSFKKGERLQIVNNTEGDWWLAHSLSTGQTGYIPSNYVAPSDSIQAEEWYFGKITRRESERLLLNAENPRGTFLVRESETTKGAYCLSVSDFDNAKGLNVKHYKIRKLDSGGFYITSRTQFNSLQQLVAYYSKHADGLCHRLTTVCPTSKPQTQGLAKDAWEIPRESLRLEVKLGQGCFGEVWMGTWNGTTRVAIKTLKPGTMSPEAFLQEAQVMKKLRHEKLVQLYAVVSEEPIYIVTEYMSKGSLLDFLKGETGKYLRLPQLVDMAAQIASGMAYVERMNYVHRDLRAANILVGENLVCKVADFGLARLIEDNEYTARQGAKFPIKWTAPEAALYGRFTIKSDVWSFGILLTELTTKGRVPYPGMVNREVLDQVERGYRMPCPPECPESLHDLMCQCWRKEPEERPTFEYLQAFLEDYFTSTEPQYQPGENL

O=C(c1c(F)ccc(NS(=O)(=O)c2ncn[nH]2)c1F)c1c[nH]c2ncc(Cl)cc12 [P-2062, 2H-[1,2,4]Triazole-3-sulfonic acid [3-(5-chloro-1H-pyrrolo[2,3-b]pyridine-3-carbonyl)-2,4-difluoro-phenyl]-amide]
not listed: [7] | [8] | [9]
≤ 10 µM: all other assays above

N#Cc1cnc2[nH]cc(C(=O)c3c(F)ccc(NS(=O)(=O)c4ncn[nH]4)c3F)c2c1 [P-2064, 2H-[1,2,4]Triazole-3-sulfonic acid [3-(5-cyano-1H-pyrrolo[2,3-b]pyridine-3-carbonyl)-2,4-difluoro-phenyl]-amide]
≤ 10 µM: [1] | [3] | [4] | [5] | [6]

Cc1cnc2[nH]cc(C(=O)c3c(F)ccc(NS(=O)(=O)c4ncn[nH]4)c3F)c2c1 [P-2065, 2H-[1,2,4]Triazole-3-sulfonic acid [2,4-difluoro-3-(5-methyl-1H-pyrrolo[2,3-b]pyridine-3-carbonyl)-phenyl]-amide]
not listed: [7] | [8] | [9]
≤ 10 µM: all other assays above

O=C(c1c(F)ccc(NS(=O)(=O)c2ncn[nH]2)c1F)c1c[nH]c2nccc(Cl)c12 [P-2066, 2H-[1,2,4]Triazole-3-sulfonic acid [3-(4-chloro-1H-pyrrolo[2,3-b]pyridine-3-carbonyl)-2,4-difluoro-phenyl]-amide]
not listed: [2] | [8] | [9]
≤ 10 µM: all other assays above

CCCS(=O)(=O)Nc1ccc(F)c(C(=O)c2c[nH]c3ncc(C(F)(F)F)cc23)c1F [P-2182, Propane-1-sulfonic acid [2,4-difluoro-3-(5-trifluoromethyl-1H-pyrrolo[2,3-b]pyridine-3-carbonyl)-phenyl]-amide]
not listed: [2] | [9]
≤ 10 µM: all other assays above

CCCS(=O)(=O)Nc1ccc(F)c(C(=O)c2c[nH]c3ncc(CN4CCOCC4)cc23)c1F [P-2244, Propane-1-sulfonic acid [2,4-difluoro-3-(5-morpholin-4-ylmethyl-1H-pyrrolo[2,3-b]pyridine-3-carbonyl)-phenyl]-amide]
≤ 10 µM: [7] | [3] | [4] | [5] | [6]

COc1cnc2[nH]cc(C(=O)c3c(F)ccc(NS(=O)(=O)C(C)C)c3F)c2c1 [P-2273, Propane-2-sulfonic acid [2,4-difluoro-3-(5-methoxy-1H-pyrrolo[2,3-b]pyridine-3-carbonyl)-phenyl]-amide]
not listed: [5]
≤ 10 µM: all other assays above

CCS(=O)(=O)Nc1ccc(F)c(C(=O)c2c[nH]c3ncc(Cl)cc23)c1F [P-2274, Ethanesulfonic acid [3-(5-chloro-1H-pyrrolo[2,3-b]pyridine-3-carbonyl)-2,4-difluoro-phenyl]-amide]
not listed: [2] | [9]
≤ 10 µM: all other assays above

COc1cnc2[nH]cc(C(=O)c3c(F)ccc(NS(C)(=O)=O)c3F)c2c1 [P-2288, N-[2,4-Difluoro-3-(5-methoxy-1H-pyrrolo[2,3-b]pyridine-3-carbonyl)-phenyl]-methanesulfonamide]
not listed: [2] | [7] | [9]
≤ 10 µM: all other assays above

Cc1cnc2[nH]cc(C(=O)c3c(F)ccc(NS(C)(=O)=O)c3F)c2c1 [P-2289, N-[2,4-Difluoro-3-(5-methyl-1H-pyrrolo[2,3-b]pyridine-3-carbonyl)-phenyl]-methanesulfonamide]
not listed: [2] | [7] | [9]
≤ 10 µM: all other assays above

CS(=O)(=O)Nc1ccc(F)c(C(=O)c2c[nH]c3ncc(Cl)cc23)c1F [P-2291, N-[3-(5-Chloro-1H-pyrrolo[2,3-b]pyridine-3-carbonyl)-2,4-difluoro-phenyl]-methanesulfonamide]
not listed: [2] | [7] | [9]
≤ 10 µM: all other assays above

CC(C)CS(=O)(=O)Nc1ccc(F)c(C(=O)c2c[nH]c3ncc(Cl)cc23)c1F [P-2304, 2-Methyl-propane-1-sulfonic acid [3-(5-chloro-1H-pyrrolo[2,3-b]pyridine-3-carbonyl)-2,4-difluoro-phenyl]-amide]
not listed: [5]
≤ 10 µM: all other assays above

Cc1cnc2[nH]cc(C(=O)c3c(F)ccc(NS(=O)(=O)CC(F)(F)F)c3F)c2c1 [P-2337, 2,2,2-Trifluoro-ethanesulfonic acid [2,4-difluoro-3-(5-methyl-1H-pyrrolo[2,3-b]pyridine-3-carbonyl)-phenyl]-amide]
not listed: [7] | [8] | [9]
≤ 10 µM: all other assays above

O=C(c1c(F)ccc(NS(=O)(=O)C(F)(F)F)c1F)c1c[nH]c2ncc(-c3ccc(Cl)cc3)cc12 [P-2343, N-{3-[5-(4-Chloro-phenyl)-1H-pyrrolo[2,3-b]pyridine-3-carbonyl]-2,4-difluoro-phenyl}-C,C,C-trifluoro-methanesulfonamide]
not listed: [5]
≤ 10 µM: all other assays above

Cc1cnc2[nH]cc(C(=O)c3c(F)ccc(NS(=O)(=O)C4CCC4)c3F)c2c1 [P-2362, Cyclobutanesulfonic acid [2,4-difluoro-3-(5-methyl-1H-pyrrolo[2,3-b]pyridine-3-carbonyl)-phenyl]-amide]
≤ 10 µM: [1] | [3] | [4] | [5] | [6]

N#Cc1cnc2[nH]cc(C(=O)c3c(F)ccc(NS(=O)(=O)C4CCCCC4)c3F)c2c1 [P-2366, Cyclohexanesulfonic acid [3-(5-cyano-1H-pyrrolo[2,3-b]pyridine-3-carbonyl)-2,4-difluoro-phenyl]-amide]
not listed: [1] | [2] | [9]
≤ 10 µM: all other assays above
